Measured values: US5869494A, “Uses for barbituric acid analogs” (priority 1997, dated 1999)
Where two headings read alike, the source gives them in different places.

Assays:
[1] = test system: human breast cancer MCF-7 cells; test: Inhibition of clonogenic growth of breast cancer cells; assay type: cell-based; details: for No. of Colonies (Mean ± S.D.): control 158.5 ± 12.2
Protocol: After additional incubation periods of 24 h and 48 h, cells were washed to remove the drug and were allowed to grow at 37° C. in a CO2 incubator. After 10 days, colonies consisting of 50 or more cells were counted.

[2] = Alleviation of depression in HIV-1 positive subjects; assay type: in vivo, human; details: 4.3 mg/kg for 15 days; three HIV-1 positive subjects
[3] = test system: human fibrosarcoma HT-1080 cells; test: Effect on human fibrosarcoma HT-1080 cells (trypan blue dye exclusion); assay type: cell-based; details: for viability at 25 µg/mL / viability at 50 µg/mL / viability at 100 µg/mL / viability at 150 µg/mL: HT-1080, read-out: Percent survival; for viability at 25 µg/mL: 25 μg/ml; for viability at 50 µg/mL: 50 μg/ml
Protocol: Human fibrosarcoma cells were cultured in Minimum essential medium (Eagle) with non-essential amino acids and Earls balanced salt solution supplemented with 10% heat-inactivated fetal bovine serum. Cells (5×10^3 in 0.5 ml of growth medium) were plated in 16 well plates and incubated at 37° C. in a humidified atmosphere of 5% CO2 in air for 24 h. Cells were then treated with different doses of C1. Control wells received vehicle only (<0.5% ethanol in saline). After further incubation periods of 24 and 48 h, the viability of cells was determined by trypan blue dye exclusion method.

[4] = test system: SF-295; test: NCI tumor cell line screen (SRB assay); assay type: cell-based; parameters: activity: dose or concentration left out as unconfirmed; details: Homo sapiens, read-out: PERCENT GROWTH
Protocol: (§1) The National Cancer Institute carried out the studies at the direction of the present inventor.
(§2) In the tests, the National Cancer Institute used the SRB (sulforhodamine B) assay as described by Skehan et al., (Journal of the National Cancer Institute, 82:13, Jul. 4, 1990, 1107-1112). Briefly, the assay is as follows. TCA-fixed cells were stained for 30 minutes with 0.4% (wt/vol) SRB dissolved in 1% acetic acid. At the end of the staining period, SRB was removed and cultures were quickly rinsed four times with 1% acetic acid to remove unbound dye. The acetic acid was poured directly into the culture wells from a beaker. […] Residual wash solution was removed by sharply flicking plates over a sink, which ensured the complete removal of rinsing solution. […] After being rinsed, the cultures were air dried until no standing moisture was visible. Bound dye was solubilized with 10 mM unbuffered Tris base (pH 10.5) for 5 minutes on a gyratory shaker.
(§3) Optical density (OD) was read in either a UVmax microtiter plate reader (Molecular Devices, Menlo Park, Calif.) or a Beckman DU-70 spectrophotometer. For maximum sensitivity, OD was measured at 564 nm. Because readings were linear with dye concentrations only below 1.8 OD units, however, suboptimal wavelengths were generally used, so that all samples in an experiment remained within the linear OD range. With most cell lines, wavelengths of approximately 490-530 nm worked well for this purpose.
(§4) Nine different non-small cell lung carcinoma cell lines, six different colon carcinoma cell lines, six different CNS (central nervous system) carcinoma cell lines, seven different melanoma cell lines, six different ovarian carcinoma cell lines, and eight different renal carcinoma cell lines were tested.

[5] = test system: KM12; test: NCI tumor cell line screen (SRB assay); assay type: cell-based; parameters: activity: dose or concentration left out as unconfirmed; details: Homo sapiens, read-out: PERCENT GROWTH
Protocol: as §1, §2, §3, §4

[6] = test system: SF-268; test: NCI tumor cell line screen (SRB assay); assay type: cell-based; parameters: activity: dose or concentration left out as unconfirmed; details: Homo sapiens, read-out: PERCENT GROWTH
Protocol: as §1, §2, §3, §4

[7] = test system: U251; test: NCI tumor cell line screen (SRB assay); assay type: cell-based; parameters: activity: dose or concentration left out as unconfirmed; details: Homo sapiens, U-251, read-out: PERCENT GROWTH
Protocol: as §1, §2, §3, §4

[8] = In vivo toxicity, single escalating oral dose; details: BALB/c mice
Protocol: A single escalating dose of the test drag is a procedure where a dose is administered to a group of mice (in this case n=3). If toxicity is not elicited, the next higher dose is given to a fresh group of mice and so on until toxicity is observed.

[9] = test system: MT-4 cells; test: Toxicity to MT-4 cells; assay type: cell-based, human; details: drug doses of the HIV-1 test (75-125 μg/ml)
Protocol: After 2 h at 37° C., treated and control HIV-1 samples were added to the indicator MT-4 cells (cultured human T cells) in the presence of 2 μg/ml POLYBRENE™ for 2 h. After washing, MT-4 cells were cultured in the presence of drug-treated or control (untreated) HIV-1. Cell viability of MT-4 cells was determined by the trypan blue dye exclusion method.

[10] = Homo sapiens, 24 h, control 92.3 ± 3.1
[11] = Homo sapiens, 48 h, control 92.4 ± 3.1

## CCCCN1C(=O)CC(=O)N(CCCC)C1=S [Compound C1, 4,6(1H, 5H)-pyrimidinedione, 1,3-dibutyldihydro-2-thioxo]
[1]; 20 μg/ml, 24 hr
  No. of Colonies (Mean ± S.D.): 24.5 ± 7.8
[1]; 20 μg/ml, 48 hr
  No. of Colonies (Mean ± S.D.): 24.5 ± 6.1
[1]; 40 μg/ml, 24 hr
  No. of Colonies (Mean ± S.D.): 13.5 ± 5.1
[1]; 40 μg/ml, 48 hr
  No. of Colonies (Mean ± S.D.): 11.7 ± 1.2
[1]; 80 μg/ml, 24 hr
  No. of Colonies (Mean ± S.D.): 3.0 ± 2.2
[1]; 80 μg/ml, 48 hr
  No. of Colonies (Mean ± S.D.): 0 ± 0
[1]; Homo sapiens, MCF7, 20 μg/ml, read-out: Percent Reduction (of colonies)
  inhibition at 20 µg/mL: 84.5%
[1]; Homo sapiens, MCF7, 40 μg/ml, read-out: Percent Reduction (of colonies)
  inhibition at 40 µg/mL: 92.6%
[1]; Homo sapiens, MCF7, 80 μg/ml, read-out: Percent Reduction (of colonies)
  inhibition at 80 µg/mL: 100%
[1]; under the conditions employed
  tumor cell clonogenic growth: virtually complete elimination of tumor cell clonogenic growth
[2]
  symptoms reported by subjects: alleviation from lethargy, depression and an increased appetite, feeling of being happy, and desire to live
[3]; 25 μg/ml (lowest dose), 48 h
  fibrosarcoma cells killed: virtually all fibrosarcoma cells were killed
[3]; 100 μg/ml, 24 h
  fibrosarcoma cells killed: Virtually all fibrosarcoma cells were killed
[3]; 150 μg/ml, 24 h
  fibrosarcoma cells killed: Virtually all fibrosarcoma cells were killed
[3]; Homo sapiens, HT-1080, 24 h, read-out: cells killed
  cytotoxicity at 50 µg/mL: > 92%
[3]; [10]
  viability at 25 µg/mL: 0.03 ± 0.03%
  viability at 50 µg/mL: 0.03 ± 0.03%
[3]; [11]
  viability at 25 µg/mL: 0%
  viability at 50 µg/mL: 0%
[3]; Homo sapiens, 100 μg/ml, 24 h, control 92.3 ± 3.1
  viability at 100 µg/mL: 0%
[3]; Homo sapiens, 100 μg/ml, 48 h, control 92.4 ± 3.1
  viability at 100 µg/mL: 0%
[3]; Homo sapiens, 150 μg/ml, 24 h, control 92.3 ± 3.1
  viability at 150 µg/mL: 0%
[3]; Homo sapiens, 150 μg/ml, 48 h, control 92.4 ± 3.1
  viability at 150 µg/mL: 0%
[4]; 10^-3.0 Molar
  activity: -95%
[4]; 10^-4.0 Molar
  activity at 100 µM: 47%
[4]; 10^-5.0 Molar
  activity at 10 µM: 100%
[4]; 10^-6.0 Molar
  activity at 1 µM: 100%
[4]; 10^-7.0 Molar
  activity at 0.1 µM: 104%
[5]; 10^-3.0 Molar
  activity: -90%
[5]; 10^-4.0 Molar
  activity at 100 µM: 76%
[5]; 10^-5.0 Molar
  activity at 10 µM: 102%
[5]; 10^-6.0 Molar
  activity at 1 µM: 101%
[5]; 10^-7.0 Molar
  activity at 0.1 µM: 101%
[6]; 10^-3.0 Molar
  activity: -58%
[6]; 10^-4.0 Molar
  activity at 100 µM: 52%
[6]; 10^-5.0 Molar
  activity at 10 µM: 93%
[6]; 10^-6.0 Molar
  activity at 1 µM: 100%
[6]; 10^-7.0 Molar
  activity at 0.1 µM: 98%
[7]; 10^-3.0 Molar
  activity: -55%
[7]; 10^-4.0 Molar
  activity at 100 µM: 54%
[7]; 10^-5.0 Molar
  activity at 10 µM: 102%
[7]; 10^-6.0 Molar
  activity at 1 µM: 111%
[7]; 10^-7.0 Molar
  activity at 0.1 µM: 104%
[8]
  lethal single dose: 2000 mg/kg
[8]; mouse, in vivo, read-out: single dose easily tolerated
  MTD: ≥ 1200 mg/kg
[9]
  toxicity to the MT-4 cells: not toxic to the MT-4 cells
